Data from patent US7456179B2, “Methods of treating ischemic related conditions” (priority 2003, dated 2008).
“Also recorded” adds a separate entry of the source. Where two headings read alike, the source gives them in different places.

Legend:
Primary cortical neurons [1] = experiment: H2O2-induced oxidative stress (150 μM), MTS assay, comparison with known neuroprotectants; type: cell-based, rat; conditions: 24 h pre-treatment, then harsh H2O2 treatment (150 μM)
Procedure: Primary cortical neurons were isolated from a 17 day old rat embryonic brain and seeded on 96-well plate at 50,000 cells/well in regular neurobasal medium for 2-3 week. Twice, half the amount of medium was replaced with fresh neurobasal medium containing no antioxidants. […] Other known neuroprotectants were dissolved in the proper solvent and diluted into final concentration as indicated. […] Each assay was performed in triplicate. After 24 hours, the cultures were evaluated for viability and mitochondrial function using a standard MTS Assay (Promega). The manufacturer's protocols were followed. Experiments were carried out following the procedures described in the Study Design described above. PAN-811 was dissolved in EtOH at 1 mg/ml (˜5 mM), and further diluted in neurobasal medium to final concentration at 0.1 μM, 1 μM, and 10 μM. Lipoic acid was dissolved in EtOH at concentration 240 mM, and further diluted in the neurobasal medium to final concentration at 10 uM, 25 uM, 50 uM and 100 uM. Vitamin E dissolved in EtOH at concentration 100 mM, and further diluted in the neurobasal medium to final concentration at 50 uM, 100 uM, 200 uM and 400 uM. Ginkgo Biloba was dissolved in dH2O at concentration 6 mg/ml, and further diluted in the neurobasal medium to final concentration at 2.5 ug/ml, 5 ug/ml, 25 ug/ml, 250 ug/ml. At the end of the treatment, the medium was replaced with 100 μl fresh pre-warmed neurobasal medium plus B27 (-AO). The plates were returned to the incubator at 37° C. with 5% CO2 for one hour. Subsequently 20 μl MTS reagent was added to each well and plates were incubated at 37° C. with 5% CO2 for an additional two hours. The absorbance at 490 nm for each well was recorded with the BioRad plate reader (Model 550). Wells containing medium alone were used as blanks. Each data point is the average of three separate assay wells. […] Two weeks old primary cultures were used for this set of study. Please see FIG. 1 for results.

Cortical neurons [2] = conditions: for protection from neuronal cell death (morphology): 5 μM, hypoxia, FIG. 4
Procedure: (§1) Experiments were performed in a 96-well plate format. Cortical neurons were seeded at a density of 50,000 cells/well on poly-D-lysine coated surface, and cultured in serum-free medium (NB plus B27 supplement) to obtain cultures high-enriched for neurons. Neurons were cultured for over 14 d.i.v. to increase cell susceptibility to excitatory amino acids (Jiang et al., 2001). Six replicate wells were treated as a group to facilitate assay quantitation.
(§2) To mimic the cerebral environments of a stroke, we established 3 in vitro model systems. The extreme H/H model (0.4 mM glucose) is a mimic of the environment in the central core of an infarct; the mild H/H model (1.63 mM glucose) is a mimic of the environment in the penumbra during MCAO; and the hypoxia only model (neurons in normal in vitro glucose concentration—25 mM) is a mimic of the environment in the penumbra after reperfusion since the possible cell death after reperfusion is predominantly a result of the hypoxic effect rather then energy failure.
(§3) Hypoxia/hypoglycemia was obtained by reducing glucose concentration down to 0.4 mM and 1.63 mM for extreme H/H and mild H/H respectively. BSS (116.0 mM NaCl, 5.4 mM KCl, 0.8 mM MgSO4.7H2O, 1.0 mM NaH2PO4, 1.8 mM CaCl2.2H2O, 26.2 mM NaHCO3, and 0.01 mM Glycine) or BSS with 25 mM glucose were de-gassed for 5 minutes prior to use. Culture medium in the plates for hypoxia was replaced with BSS or BSS with glucose. Meanwhile, culture medium in the plates for normoxia was replaced with non de-gassed BSS or BSS with glucose. Cells were committed to hypoxic conditions by transferring the plates into a sealed container (Modular Incubator Chamber-101TM, Billups-Rothenberg, Inc.), applying a vacuum for 20 minutes to remove O2 or other gases from the culture medium, and then refilling the chamber with 5% CO2 and 95% N2 at a pressure of 30 psi for 1 minute. The level of O2 in the chamber was determined to be zero with an O2 indicator (FYRITE Gas Analyzer, Bacharach, Inc.). Culture plates were maintained in the chamber for 6 hours. As an experimental control, duplicate culture plates were maintained under normal culture condition (5% CO2 and 95% ambient air) for the same duration. After a 6-hour treatment plates were removed from the chamber and the medium in both the hypoxic and normoxic cultures was replaced with a termination solution (DMEM supplemented with 1× sodium pyruvate, 10.0 mM HEPES, and 1×N2 supplement) containing 25 mM glucose and cultured in 5% CO2 and 95% ambient air conditions. […] MK801 was utilized as a positive control. Mitochondrial function and cell death were evaluated at 24 or 48 hours post H/H insult with the MTS and LDH analyses (see below).
Treatment with drug was continued during and subsequent to a 24-hour period of hypoxia. Cellular morphology and function (MTS and LDH assays) were measured 24 or 48 hours subsequent to the hypoxic insult.
(§4) The MTS assay is a colorimetric assay that measures the mitochondrial function in metabolically active cells. This measurement indirectly reflects cell viability. […] 20 μl of MTS reagent (Promega) are added to each well of the 96 well assay plates containing the samples in 100 μl of culture medium. The plate is then incubated in a humidified, 5% CO2 atmosphere at 37° C. for 1-2 hours until the color is fully developed. The absorbance at 490 nm was recorded using a Bio-Rad 96 well plate reader.
Lactate dehydrogenase (LDH) assay is based on the reduction of NAD by the action of LDH.

Primary cortical neurons [3] = experiment: ROS generation, CM-H2DCFDA / c-DCF fluorescence; type: cell-based, rat; conditions: at 10 μM
Procedure: Primary cortical neurons were isolated from a 17 day old rat embryonic brain and seeded in 96-well plates at 50,000 cells/well in regular neurobasal medium for 2-3 weeks. Twice, half the amount of medium was replaced with fresh neurobasal medium without antioxidants. […] Untreated cells loaded with the dye were used as controls to calculate the c-DCF fluorescence change. Each assay was performed in triplicate. Experiments were carried out following the procedures described in the Study Design described above. The c-DCF fluorescence at 485/520 nm (Ex/Em) for each well was recorded with the BMG polar star plate reader. Wells containing cells without dye were used as blanks. Each data point is the average of three separate assay wells. Untreated cells loaded with the dye were used as a control to calculate the c-DCF fluorescence change. Two weeks old primary cultures were used for the study.

[4] = test system: enriched neuronal cultures (cerebellar tissue); experiment: Neurotoxicity of PAN-811, MTT assay; conditions: 24 hrs
Procedure: Neuronal culture. Enriched neuronal cultures were prepared from 15-day-old Sprague-Dawley rat embryos. Using aseptic techniques, the rat embryos were removed from the uterus and placed in sterile neuronal culture medium. Using a dissecting microscope, the brain tissue was removed from each embryo, with care taken to discard the meninges and blood vessels. […] Cells were dissociated by trituration of the tissue and were plated at a density of 5×10^5 cells/well onto 48-well culture plates precoated with poly(L-lysine). […]
3.3.1.2 Neurotoxicity of PAN-811. […] Cell viability was determined in the MTT assay.
3.1.3.4 MTT Assay. […] Cell damage was quantitatively assessed using a tetrazolium salt colorimetric assay with 3-(4,5-dimethylthiazol-2-yl)-2,5-diphenyltetrazolium (MTT; Sigma Chemical Co., St. Louis, Mo.). Briefly, the dye was added to each well (final concentration, 1.5 mg/ml), cells were incubated with MTT-acidified isopropanol (0.1 N HCl in isopropanol), and the absorbance intensity (540 nm) of each sample was measured in a 96-well plate reader. Values are expressed relative to vehicle-treated control cells that were maintained on each plate, and the percentage change in cell viability was calculated.

Cortical neurons [5] = experiment: Extreme hypoxia/hypoglycemia (H/H) model (0.4 mM glucose)
Procedure: as §1
To mimic the cerebral environments of a stroke, we established 3 in vitro model systems. […]
Hypoxia/hypoglycemia was obtained by reducing glucose concentration down to 0.4 mM and 1.63 mM for extreme H/H and mild H/H respectively. […] The level of O2 in the chamber was determined to be zero with an O2 indicator (FYRITE Gas Analyzer, Bacharach, Inc.). […] Mitochondrial function and cell death were evaluated at 24 or 48 hours post H/H insult with the MTS and LDH analyses (see below).
The MTS assay is a colorimetric assay that measures the mitochondrial function in metabolically active cells. […] The absorbance at 490 nm was recorded using a Bio-Rad 96 well plate reader. […]

Cortical neurons [6] = conditions: for protection from mild H/H: pre-treatment 24 h, H/H 6 h
Procedure: as §1, §2, §3, §4
Lactate dehydrogenase (LDH) assay is based on the reduction of NAD by the action of LDH. The resulting reduced NAD (NADH) is utilized in the stoichiometric conversion of a tetrazolium dye. If cell-free aliquots of medium from cultures given different treatments are assayed, then the amount of LDH activity can be used as an indicator of relative cell death as well as a function of membrane integrity. A 50 μl aliquot of culture medium from a well in tested 96-well plate is transferred into a well in unused plate and supplemented with 25 μl of equally-mixed Substrate, Enzyme and Dye Solutions (Sigma).

[7] = test system: male Sprague-Dawley rats, MCAO
[8] = test system: enriched neuronal cultures (cerebellar tissue); experiment: In vitro models of excitotoxicity (H/H, glutamate, staurosporine, veratridine), MTT assay; conditions: MTT 24 hrs after insult
Procedure: Neuronal culture. Enriched neuronal cultures were prepared from 15-day-old Sprague-Dawley rat embryos. Using aseptic techniques, the rat embryos were removed from the uterus and placed in sterile neuronal culture medium. Using a dissecting microscope, the brain tissue was removed from each embryo, with care taken to discard the meninges and blood vessels. […] Cells were dissociated by trituration of the tissue and were plated at a density of 5×10^5 cells/well onto 48-well culture plates precoated with poly(L-lysine). Cultures were maintained in a medium containing equal parts of Eagle's basal medium (without glutamine) and Ham's F-12k medium supplemented with 10% heat-inactivated horse serum, 10% fetal bovine serum, 600 μg/ml glucose, 100 μg/ml glutamine, 50 U/ml penicillin, and 50 μg/ml streptomycin. After 48 h, 10 μM cytosine arabinoside was added to inhibit non-neuronal cell division. Cells were used in experiments after 7 days in culture.
Four in vitro models of excitotoxicity were studied. Cells were either exposed to H/H conditions for 3 hrs or treated for 45 min with either glutamate (100 μM), staurosporine (1 μM) or veratridine (10 μM). All cells were cotreated with or without PAN-811 (10 μM) in Locke's solution. At the conclusion of the respective excitotoxic exposures, the condition medium (original) was replaced. H/H was induced by incubating the cells in a humidified airtight chamber saturated with 95% nitrogen, 5% CO2 gas for 3 hrs. in Locke's solution without added glucose.
24 hrs. after the excitotoxic insult cell viability assessments were made. Cell damage was quantitatively assessed using a tetrazolium salt colorimetric assay with 3-(4,5-dimethylthiazol-2-yl)-2,5-diphenyltetrazolium (MTT; Sigma Chemical Co., St. Louis, Mo.). Briefly, the dye was added to each well (final concentration, 1.5 mg/ml), cells were incubated with MTT-acidified isopropanol (0.1 N HCl in isopropanol), and the absorbance intensity (540 nm) of each sample was measured in a 96-well plate reader. Values are expressed relative to vehicle-treated control cells that were maintained on each plate, and the percentage change in cell viability was calculated.

Primary cortical neurons [9] = experiment: H2O2-induced oxidative stress (60-70 μM), MTS assay; type: cell-based, rat; conditions: 1-10 μM, 24 h pre-treatment, then 60-70 μM H2O2, MTS
Procedure: Primary cortical neurons were isolated from a 17 day old rat embryonic brain and seeded on 96-well plate at 50,000 cells/well in regular neurobasal medium for 2-3 week. Twice, half amount of medium was replaced with fresh neurobasal medium containing no antioxidants. […] Each assay was performed in triplicate. […] After 24 hours, the cultures were evaluated for viability and mitochondrial function using a standard MTS Assay (Promega). The manufacturer's protocols were followed. Experiments were carried out following the procedures described in the study design. At the end of the treatment, all treatments and medium were replaced with 100 μl fresh pre-warmed neurobasal medium plus B27 (-AO). The plates were put back into the incubator at 37° C. with 5% CO2 for one hour, then 20 μl MTS reagent was added to each well and plates were incubated at 37° C. with 5% CO2 for an additional two hours. The absorbance at 490 nm for each well was recorded with the BioRad plate reader (Model 550). Wells containing medium alone well was used as blanks. Each data point is the average of three separate assay wells. […] Three weeks old primary cultures were used for this set of study. Please see FIG. 10 for results. Experiments were carried out following the same procedures as experiment 1.

[10] = Solubility of PAN-811 in solvents; conditions: PEG-300/EtOH (70%/30%) versus EtOH
Procedure: PAN-811 was dissolved in either EtOH or DMSO at 1 mg/ml (˜5 mM), in PEG-300/EtOH (70%/30%) at 5 mg/ml (˜25 mM), and further diluted in medium to final concentration at 1 μM, 5 μM, 20 μM and 50 μM. […] Equal volume of solvents (EtOH, DMSO, and PEG-300/EtOH) was added to cells to test the solvent effects on the assay.

## O=C(O)CCCC[C@@H]1CCSS1 (racemic) [Lipoic acid, reference compound]
Primary cortical neurons [1]; known neuroprotectants
  neuroprotective capacity: minimal neuroprotective capacity

## Vitamin E [reference compound]
Primary cortical neurons [1]; known neuroprotectants
  neuroprotective capacity: minimal neuroprotective capacity

## C[C@]12N[C@H](Cc3ccccc31)c1ccccc12 [MK801, reference compound]
Cortical neurons [2]
  protection from neuronal cell death (morphology): efficient protection from neuronal cell death

## NC(=S)N/N=C/c1ncccc1N [PAN-811, 3-aminopyridine-2-carboxaldehyde thiosemicarbazone]
Primary cortical neurons [3]
  reduction of the basal level of ROS generation: ~50%
Primary cortical neurons [3]; 1 h, then 300 μM H2O2 for 2 hours
  reduction of H2O2-induced ROS generation: ~30%
[4]; concentrations up to 100 μM
  neurotoxicity: only slight toxicity
[4]; highest concentration tested (100 μM)
  maximal toxicity: 7.8%
Cortical neurons [5]; at 100 μM
  block of extreme H/H-induced neuronal cell death: only partially blocked
Cortical neurons [5]; at ≦50 μM, extreme H/H (data not shown)
  protection from neuronal cell death: did not protect neuronal cell death
Cortical neurons [6]; 2 μM, Apr. 17, 2003, culture age 13 days, 48 h post H/H
  protection from mild H/H: 100% protected
Cortical neurons [6]; 2 μM, Jul. 9, 2003, culture age 13 days, 20 h post H/H
  protection from mild H/H: 100% protected
Cortical neurons [6]; 2 μM, May 2, 2003, culture age 22 days, 24 h post H/H
  protection from mild H/H: 100% protected
Cortical neurons [6]; 2 μM, May 8, 2003, culture age 42 days, 24 h post H/H
  protection from mild H/H: 100% protected
Cortical neurons [6]; 5 μM, 24 hours before and during 6-hour H/H, 15-day culture, MTS and LDH 17 hours post
  protection from H/H-induced mitochondria dysfunction and neuronal cell death: completely protected
Cortical neurons [6]; 5 μM, Jul. 25, 2003, culture age 15 days, 24 h post H/H, test range started from 5 μM
  protection from mild H/H: 100% protected
Cortical neurons [6]; 10 μM, Jul. 13, 2003, culture age 15 days, 24 h post H/H, test range started from 5 μM
  protection from mild H/H: 100% protected
Cortical neurons [6]; at 2 μM
  protection from mild H/H induced neurotoxicity: completely protected
Cortical neurons [6]; treatment 24 h before 6-hour H/H only, LDH 48 hours after H/H
  protection from neuronal cell death (LDH): marginally
Primary cortical neurons [1]; PAN-811 at 1-10 μM
  neuroprotective capacity: good neuroprotective capacity; also recorded: significant neuroprotection
[7]; 1 mg/kg IV 10 minutes prior to 2 h MCAO, 24 hours after surgery
  range of infarct volume: 42.36-387.08 mm^3
[7]; 1 mg/kg IV 10 minutes prior to 2 h MCAO, 24 hours after surgery, n 14
  mean infarct volume: 225.85 mm^3
[7]; 1 mg/kg IV 10 minutes prior to MCAO, p<0.05
  % protection (reduction in average infarct volume vs vehicle): 23%
[7]; 1 mg/kg IV, 6 of the 7 deaths were vehicle rats
  rats that died (of 7 deaths from severe stroke or SAH): 1 rat
[7]; rat, in vivo
  tolerability / toxicity: well tolerated and relatively non-toxic
[8]; 10 μM PAN-811, 1 μM staurosporine 45 min
  protection from damage by staurosporine: ~47%
[8]; 10 μM PAN-811, 10 μM veratridine 45 min
  protection from damage by veratridine: ~39%
[8]; 10 μM PAN-811, 100 μM glutamate 45 min
  protection from damage by glutamate: ~75%
[8]; 10 μM PAN-811, 3 hour H/H
  protection from damage by hypoxia/hypoglycemia: 92%
Primary cortical neurons [9]
  neuroprotective capacity: good neuroprotective capacity
Cortical neurons [2]; 2 μM, 24 hours prior to, during and subsequent to 24-hour hypoxia
  block of neuronal cell death and mitochondrial dysfunction: completely blocking neuronal cell death and mitochondrial dysfunction
Cortical neurons [2]; 2 μM, 48 h prior to, during 24-hour hypoxia and 48 h subsequent
  block of hypoxia-induced cell death: completely blocked the cell death
Cortical neurons [2]
  protection from neuronal cell death (morphology): efficient protection from neuronal cell death
Cortical neurons [2]; at 2 μM
  protection from sole hypoxia-induced neurotoxicity: completely protected
[10]
  solubility: better solubility in PEG-300/EtOH comparing to EtOH alone
